Measured values taken from US10889573B2, “Anthelmintic quinoline-3-carboxamide derivatives” (Bayer Animal Health GMBH, priority 2016, dated 2021).

Tests used:
[1] = tested on: Dirofilaria immitis microfilariae; assay: In vitro assay 3: Dirofilaria immitis microfilariae (DIROIM L1), motility; details: 72 h, read-out: EC50 (reduction of motility), 72 h incubation
C. elegans Slo-1a = C. elegans Slo-1a (Caenorhabditis elegans, UniProt Q95V25); details: pE50 (negative decadic logarithm of EC50), CHO cells expressing C. elegans Slo-1a, voltage sensitive dye
Procedure: In Vitro Assay 1: C. elegans Slo-1a—Action at a Recombinant C. elegans Cell Line
Cells were cultured at 37° C. and 5% CO2 in MEMalpha with Gutamax I (Invitrogen, Nr.: 32571), supplemented with 10% (v/v) heat inactivated fetal bovine serum (Invitrogen, Nr.: 10500), G418 (1 mg/ml, Invitrogen, Nr.: 10131). Cells were detached using Accutase (Sigma, Nr.: A6964).
Membrane Potential Measurements
Laboratory compound testing was performed on 384-well microtiter plates (MTPs, Greiner, Nr.: 781092). 8000 cells/well were plated onto 384-well MTPs and cultured for 20 to 24 hours at 37° C. and 5% CO2. After removal of the cell culture medium, the cells were washed once with tyrode (150 mM NaCl, 0.3 mM KCl, 2 mM CaCl2, 1 mM MgCl2, 0.8 mM NaH2PO4, 5 mM Glucose, 28 mM Hepes, pH 7.4) and then loaded with the voltage sensitive dye of the Membrane Potential Assay Kit diluted in tyrode for 1 h at room temperature.
After starting the measurement of fluorescence using a FLIPR Tetra (Molecular Devices, Exc. 510-545 nm, Emm. 565-625 nm), test compounds were added followed by the addition of KCl tyrode (final assay concentration: 70 mM KCl, 2 mM CaCl2, 1 mM MgCl2, 0.8 mM NaH2PO4, 5 mM Glucose, 28 mM Hepes, pH 7.4, including the voltage sensitive dye). The measurement was completed after 7 minutes.
The data were evaluated by using the ActivityBase XLfit software (IDBS) for curve fitting and calculation of the half-maximal effective concentration (EC50) and are reported as negative decadic logarithm (pE50).

[2] = tested on: Nippostrongylus brasiliensis; assay: In vitro assay 2: Nippostrongylus brasiliensis (NIPOBR), acetylcholine esterase readout; details: read-out: activity (reduction of AChE compared to negative control); for inhibition at 10 µg/mL: 10 μg/ml; for inhibition at 1 µg/mL: 1 μg/ml
Procedure: In Vitro Assay 2: Nippostrongylus brasiliensis (NIPOBR)
Adult Nippostrongylus brasiliensis were washed with saline buffer containing 100 U/ml penicillin, 0.1 mg/ml streptomycin and 2.5 μg/ml amphotericin B. Test compounds were dissolved in DMSO and worms were incubated in medium in a final concentration of 10 μg/ml (10 ppm) respectively 1 μg/ml (1 ppm). An aliquot of the medium was used to determine the acetylcholine esterase activity in comparison to a negative control. The principle of measuring acetylcholine esterase as readout for anthelmintic activity was described in Rapson et al (1986) and Rapson et al (1987).

C. elegans Slo-1a, sequence (Q95V25 whole entry): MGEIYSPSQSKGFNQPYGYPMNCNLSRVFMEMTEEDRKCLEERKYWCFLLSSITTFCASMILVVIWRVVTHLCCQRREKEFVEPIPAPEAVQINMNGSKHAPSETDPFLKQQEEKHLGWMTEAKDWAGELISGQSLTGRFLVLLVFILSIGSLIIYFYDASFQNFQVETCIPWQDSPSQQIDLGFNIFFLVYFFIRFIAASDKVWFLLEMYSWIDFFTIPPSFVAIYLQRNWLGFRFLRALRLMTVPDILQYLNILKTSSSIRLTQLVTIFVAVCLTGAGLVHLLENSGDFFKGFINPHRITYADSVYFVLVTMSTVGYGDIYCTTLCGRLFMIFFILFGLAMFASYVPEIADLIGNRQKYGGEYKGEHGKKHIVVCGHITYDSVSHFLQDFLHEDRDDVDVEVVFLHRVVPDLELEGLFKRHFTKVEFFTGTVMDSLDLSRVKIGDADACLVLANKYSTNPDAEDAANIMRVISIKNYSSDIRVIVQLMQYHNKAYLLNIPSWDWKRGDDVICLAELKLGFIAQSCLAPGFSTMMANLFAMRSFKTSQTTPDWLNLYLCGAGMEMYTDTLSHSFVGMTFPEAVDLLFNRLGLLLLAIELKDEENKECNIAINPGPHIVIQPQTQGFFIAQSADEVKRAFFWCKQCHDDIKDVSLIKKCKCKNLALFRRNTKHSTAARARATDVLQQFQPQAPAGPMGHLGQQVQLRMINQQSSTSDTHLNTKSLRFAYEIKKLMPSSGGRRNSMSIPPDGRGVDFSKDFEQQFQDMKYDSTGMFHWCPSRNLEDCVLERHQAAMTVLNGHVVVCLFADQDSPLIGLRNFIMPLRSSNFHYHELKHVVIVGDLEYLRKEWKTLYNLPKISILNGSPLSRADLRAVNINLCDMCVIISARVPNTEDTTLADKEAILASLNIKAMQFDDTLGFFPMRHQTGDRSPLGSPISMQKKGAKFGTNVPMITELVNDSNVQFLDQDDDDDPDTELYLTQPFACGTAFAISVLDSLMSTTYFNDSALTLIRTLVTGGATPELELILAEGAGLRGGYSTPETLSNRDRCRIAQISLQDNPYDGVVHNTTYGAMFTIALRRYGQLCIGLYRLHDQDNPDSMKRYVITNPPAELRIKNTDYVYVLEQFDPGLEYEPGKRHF

Row | Compound | EC50 [1] [µg/mL] | EC50 (C. elegans Slo-1a) [nM] | inhibition at 10 µg/mL [2] [%] | inhibition at 1 µg/mL [2] [%]
1 | COc1ccc(F)cc1-c1cccc2c(N3CCC(O)C3)c(C(=O)N[C@H]3CCOc4ccccc43)cnc12 (mixture of isomers) [Example 270] | < 0.1 | 3.16 to 31.6 | – | –
2 | O=C(N[C@H]1CCOc2ccccc21)c1cnc2c(-c3cc(Cl)cc(Cl)c3)cccc2c1C1CCNC1 (mixture of isomers) [Example 519] | < 10 | 31.6 to 316 | – | –
3 | O=C(N[C@H]1CCOc2ccccc21)c1cnc2c(-c3cc(Cl)cc(Cl)c3)cccc2c1Cl [Example 4, 4-chloro-8-(3,5-dichlorophenyl)-N-[(4S)-3,4-dihydro-2H-chromen-4-yl]quinoline-3-carboxamide] | < 0.1 | 3.16 to 31.6 | – | –
4 | O=C(N[C@H]1CCc2ccccc21)c1cnc2c(-c3cccc(Cl)c3)cccc2c1Cl [Example 6] | < 0.1 | 3.16 to 31.6 | – | –
5 | CN(C)c1c(C(=O)N[C@H]2CCOc3ccccc32)cnc2c(-c3ccc4ncn(C)c4c3)cccc12 [Example 71] | < 1 | 31.6 to 316 | > 80 | –
6 | O=C(N[C@H]1CCc2ccccc21)c1cnc2c(-c3cc(Cl)cc(Cl)c3)cccc2c1N1CC(O)C1 [Example 102] | < 1 | 3.16 to 31.6 | – | –
7 | CC1CN(c2c(C(=O)N[C@H]3CCc4ccccc43)cnc3c(-c4cc(Cl)cc(Cl)c4)cccc23)C1 [Example 120] | < 10 | 31.6 to 316 | – | –
8 | COC(=O)c1cc(-c2cccc3c(N4CCOCC4)c(C(=O)N[C@H]4CCOc5ccccc54)cnc23)c2ocnc2c1 [Example 216] | < 1 | 31.6 to 316 | – | –
9 | COc1cc(F)c(-c2cccc3c(N4CCOCC4)c(C(=O)N[C@H]4CCOc5ccccc54)cnc23)cc1F [Example 230] | < 1 | 31.6 to 316 | – | –
10 | CC(C)(C)OC(=O)[C@@H]1CCCN1c1c(C(=O)N[C@H]2CCc3ccccc32)cnc2c(-c3cc(Cl)cc(Cl)c3)cccc12 [Example 241] | < 1 | 31.6 to 316 | – | –
11 | CC(C)(C)OC(=O)[C@@H]1CCCN1c1c(C(=O)N[C@H]2CCOc3ccccc32)cnc2c(-c3cc(Cl)cc(Cl)c3)cccc12 [Example 242] | < 1 | 31.6 to 316 | – | –
12 | CC(C)(C)OC(=O)[C@@H]1CCCN1c1c(C(=O)N[C@H]2CCOc3ccccc32)cnc2c(-c3cc(Cl)cc(Cl)c3)cccc12 [Example 243, tert-butyl 1-{8-(3,5-dichlorophenyl)-3-[(4S)-3,4-dihydro-2H-chromen-4-ylcarbamoyl]quinolin-4-yl}-L-prolinate] | – | 316 to 5010 | – | –
13 | O=C(N[C@H]1CCOc2ccccc21)c1cnc2c(-c3cc(Cl)cc(Cl)c3)cccc2c1N1CCC[C@@H]1CO [Example 287] | < 10 | 3.16 to 31.6 | – | > 80
14 | O=C(N[C@H]1CCc2ccccc21)c1cnc2c(-c3cc(Cl)cc(Cl)c3)cccc2c1N1CCC[C@@H]1C(=O)O [Example 299] | < 1 | 31.6 to 316 | – | –
15 | O=C(NC1CCOc2ccccc21)c1cnc2c(-c3cc(Cl)cc(Cl)c3)cccc2c1N1CC2CCC(C1)O2 (stereo not drawn) [Example 302] | < 10 | < 3.16 | – | > 80
16 | C=C(C)c1c(C(=O)N[C@H]2CCOc3ccccc32)cnc2c(-c3cc(Cl)cc(Cl)c3)cccc12 [Example 317, 8-(3,5-dichlorophenyl)-N-[(4S)-3,4-dihydro-2H-chromen-4-yl]-4-(prop-1-en-2-yl)quinoline-3-carboxamide] | < 0.1 | 3.16 to 31.6 | – | –
17 | CCOC(=O)[C@@H]1CCCN1c1c(C(=O)N[C@H]2CCOc3ccccc32)cnc2c(-c3cc(Cl)cc(Cl)c3)cccc12 [Example 320] | < 1 | 3.16 to 31.6 | – | –
18 | O=C(N[C@H]1CCc2ccccc21)c1cnc2c(-c3cc(Cl)cc(Cl)c3)cccc2c1OCC1CCCC1 [Example 348] | < 1 | 3.16 to 31.6 | – | –

Row | Compound | EC50 [1] [µg/mL] | EC50 (C. elegans Slo-1a) [nM] | inhibition at 10 µg/mL [2] [%] | inhibition at 1 µg/mL [2] [%]
19 | CCOC(=O)C(C#N)c1c(C(=O)N[C@H]2CCOc3ccccc32)cnc2c(-c3cc(Cl)cc(Cl)c3)cccc12 (stereo partly drawn) [Example 354, ethyl cyano{8-(3,5-dichlorophenyl)-3-[(4S)-3,4-dihydro-2H-chromen-4-ylcarbamoyl]quinolin-4-yl}acetate] | < 1 | 31.6 to 316 | – | –
20 | O=C(N[C@H]1CCOc2ccccc21)c1cnc2c(-c3cc(Cl)cc(Cl)c3)cccc2c1Sc1ccccn1 [Example 363] | < 10 | 316 to 5010 | > 80 | –
21 | COC(=O)CNc1c(C(=O)N[C@H]2CCOc3ccccc32)cnc2c(-c3cc(Cl)cc(Cl)c3)cccc12 [Example 375] | < 0.1 | 3.16 to 31.6 | – | > 80
22 | CN(C)c1c(C(=O)N[C@H]2CCOc3ccccc32)cnc2c(-c3ccc(C#N)s3)cccc12 [Example 389] | < 10 | 31.6 to 316 | – | –
23 | O=C(N[C@H]1CCOc2ccccc21)c1cnc2c(-c3cc(Cl)cc(Cl)c3)cccc2c1N1CCC(F)(F)CC1 [Example 398] | < 10 | < 3.16 | – | –
24 | Cc1ncc(-c2cccc3c(N(C)C)c(C(=O)N[C@H]4CCOc5ccccc54)cnc23)s1 [Example 456] | < 1 | 31.6 to 316 | – | –
25 | Cc1nc2c(-c3cccc(Cl)c3Cl)cccc2c(N(C)C)c1C(=O)N[C@H]1CCOc2ccccc21 [Example 481, 8-(2,3-dichlorophenyl)-N-[(4S)-3,4-dihydro-2H-chromen-4-yl]-4-(dimethylamino)-2-methylquinoline-3-carboxamide] | < 10 | 3.16 to 31.6 | – | –
26 | CN(C)c1c(C(=O)NC2CCOc3ccc(Br)cc32)cnc2c(-c3cc(Cl)cc(Cl)c3)cccc12 (stereo not drawn) [Example 580] | < 1 | 316 to 5010 | – | –
27 | CN(C)c1c(C(=O)NC2COCc3ccccc32)cnc2c(-c3cc(Cl)cc(Cl)c3)cccc12 (stereo not drawn) [Example 581] | < 0.1 | 31.6 to 316 | – | > 80
28 | CN(C)C(=O)c1c(C(=O)N[C@H]2CCOc3ccccc32)cnc2c(-c3cc(Cl)cc(Cl)c3)cccc12 [Example 585] | < 1 | 3.16 to 31.6 | – | > 80
29 | O=C(N[C@H]1CCOc2ccccc21)c1cnc2c(-c3cc(Cl)cc(Cl)c3)cccc2c1CO [Example 592] | – | 316 to 5010 | – | –
30 | O=C(N[C@H]1CCOc2ccccc21)c1cnc2c(-c3cc(Cl)cc(Cl)c3)cccc2c1CCO [Example 593] | – | 3.16 to 31.6 | – | –
31 | O=C(N[C@H]1CCOc2ccccc21)c1cnc2c(-c3cc(Cl)cc(Cl)c3)c(O)ccc2c1N1CCOCC1 [Example 616] | < 0.1 | < 3.16 | – | –
32 | O=C(N[C@H]1CCOc2ccccc21)c1cnc2c(-c3cc(Cl)ccc3F)cc(O)cc2c1N1CCOCC1 [Example 626] | < 0.1 | 3.16 to 31.6 | – | > 80
33 | CN(C)c1c(C(=O)NC2CCOc3c(Br)cccc32)cnc2c(-c3cc(Cl)cc(Cl)c3)cccc12 (stereo not drawn) [Example 634] | < 0.1 | 31.6 to 316 | – | > 80
34 | O=C(N[C@H]1CCOc2ccccc21)c1cnc2c(-c3cccc(Cl)c3Cl)cccc2c1C1=CCOCC1 [Example 653] | < 0.1 | < 3.16 | – | > 80
35 | Cn1cc(-c2c(C(=O)N[C@H]3CCOc4ccccc43)cnc3c(-c4cc(Cl)cc(Cl)c4)cccc23)c(=O)n(C)c1=O [Example 654] | < 1 | 31.6 to 316 | – | –
36 | CN(C)c1c(C(=O)NC2COCc3c(F)cccc32)cnc2c(-c3cc(Cl)cc(Cl)c3)cccc12 (stereo not drawn) [Example 665] | – | 31.6 to 316 | – | –
